Measured values reported in patent publication US11752116B2, “Method of viral inhibition” (priority 2013, dated 2023).

Tests used:
DENV-2 [1] = assay: Delayed addition in DENV-2 infected Huh-7 cells, NS1 RNA by qPCR; type: cell-based
Protocol: To gain further insight into the mode of action of 4-HPR, the human liver carcinoma cell line, Huh-7 cells were infected with DENV-2 (MOI of 1), followed by delayed addition of drug diluent DMSO (DENV only), 7.5 μM 4-HPR, 7.5 μM 4-MPR or 10 μM NITD008 (a previously described adenosine nucleoside inhibitor), 12 h post infection. Cells were lysed at the indicated times, RNA was extracted by Trizol and analysed by qPCR with fold change in expression of NS1 calculated relative to the untreated control (FIG. 5B). Concurrently, culture medium was collected and viral titres determined by plaque assay (FIG. 5C).

DENV-1 [2] = assay: ADE-mediated DENV-1 infection of human PBMCs, plaque assay; type: cell-based; details: ADE-mediated DENV-1 infection, 48 h
Protocol: The antiviral activity of 4-HPR was investigated in the more physiologically relevant human system of peripheral blood mononuclear cells (PBMCs), a major target of DENV infection in humans.
PBMCs were prepared from a healthy donor buffy coat using a Ficoll gradient, prior to ADE-mediated DENV-1 infection (MOI of 10) in the presence of increasing concentrations of 4-HPR or 4-MPR, and infectious virus titres determined by plaque assay 48 h later.

DENV-4 = assay: Cell-based flavivirus immunodetection assay in BHK-21 cells, DENV-4; details: BHK-21 cells, 48 h p.i.
Protocol: (§1) To investigate this, BHK-21 cells were infected with DENV serotypes 1, 2, 3 or 4 (MOI of 0.3) for 1 h in the presence of 4-HPR or 4-MPR (concentrations as indicated in FIG. 6A). Virus inoculum was removed and fresh media containing the indicated compounds was added. Virus infection rates were determined 48 h p.i. using a cell-based flavivirus immunodetection assay. Briefly, cells were fixed and stained for DENV structural protein, E, followed by addition of Alexa Fluor 488 anti-mouse IgG. Viral antigen quantification was performed using Imagexpress. Data shown are representative of a single experiment

CHIKV = CHIKV infection of HEK293T cells, plaque assay; type: cell-based; details: 5 μM, 24 h p.i.
Protocol: HEK293T cells were treated with 5 μM 4-HPR or 4-MPR for 2 h, then infected with CHIKV for 1 h (MOI of 0.1) in the absence of compound (FIG. 9A). Alternatively, HEK293T cells were infected with CHIKV for 1 h (MOI of 0.1) without pre-treating the cells with compound (FIG. 9B). In both instances, virus inoculums were removed, then fresh medium containing the indicated compound was added (FIG. 9A and FIG. 9B). Infectious virus titres were determined by plaque assay 24 h p.i. Data are the mean+standard deviation of one experiment performed in duplicate wells, represented as plaque forming units per ml (PFU/ml).

DENV-2 [3] = assay: DENV-2 infectivity assay in Vero cells, viral RNA copies in culture medium by RT-PCR; type: cell-based; details: MOI of 1; for effect on DENV infection (viral RNA copies at 24 h p.i.): 10 μM compound
Protocol: To test the specificity of 4-HPR and 4-oxo-4-HPR for anti-DENV activity Vero cells were infected with DENV-2 with a multiplicity of infection (MOI) of 1, in the presence of drug diluent (untreated) or the indicated compounds (10 μM in FIG. 3A, or 10 μM or 5 μM as indicated in FIG. 3B) for 2 h, followed by removal of the virus/drug inoculums, and addition of fresh 2% FCS maintenance medium. At 24 h post infection (p.i.) the culture medium was collected and the viral RNA extracted using QIAamp viral RNA mini kit (Qiagen). Absolute RNA copies present in each sample were determined by Taqman One Step RT-PCR (Applied Biosystems), as an estimate of virus titre by extrapolation from a standard curve generated from in vitro transcribed DENV RNA. Data shown are the mean+standard error of the mean (SEM) for 3 (FIG. 3A) or 2 (FIG. 3B) independent experiments. Statistical analysis (Student's ttest) was performed using GraphPad Prism software.

DENV-2 [4] = assay: Cell-based flavivirus immunodetection assay in BHK-21 cells, DENV-2; details: BHK-21 cells, 48 h p.i.
Protocol: as §1

DENV-3 = assay: Cell-based flavivirus immunodetection assay in BHK-21 cells, DENV-3; details: 48 h p.i.
Protocol: as §1

DENV-1 [5] = assay: Cell-based flavivirus immunodetection assay in BHK-21 cells, DENV-1; details: 48 h p.i.
Protocol: as §1

DENV-2 NS5 / IMPα/β = DENV-2 NS5 / IMPα/β (Dengue virus type 2, UniProt P14340); assay: AlphaScreen binding of His6-NS5 to IMPα/β heterodimer; details: 3 nM His6-NS5, 10 nM IMPα/β, increasing concentrations of compound
Protocol: AlphaScreen®, a luminescent bead-based assay that measures direct protein-protein interactions, was used to examine the binding of 3 nM His6-NS5 to 10 nM IMPα/β (IMPα/β heterodimer containing biotinylated IMPβ1) in the presence of increasing concentrations of 4-HPR, 4-MPR or ATRA (FIG. 1A), or 4-oxo-4-HPR, 4-HPR or 4-MPR (FIG. 1B). Data are the mean±standard deviation (SD) of triplicate wells from a single typical experiment.
To investigate the specificity of 4-HPR inhibition of NS5-importin association, the binding of 30 nM His6-NS5 to 10 nM IMPα/β, (IMPα/β heterodimer containing biotinylated IMPβ1), 3 nM IMPαΔIBB (biotinylated IMPa with the IMPβ-binding domain removed), or 3 nM biotinylated IMPβ1, in the presence of increasing concentrations of 4-HPR, was investigated.

[6] = system: West Nile virus, Kunjin strain (WNVKUN); assay: West Nile virus (Kunjin strain) infection of Vero cells, plaque assay; type: cell-based; details: Vero cells
Protocol: FIG. 9C. Viral titre from a plaque assay conducted from Vero cells infected with West Nile virus (Kunjin strain; WNVKUN) after treatment with 10 μM 4-HPR for 4 h.

Q: Which “viral RNA levels (NS1 qPCR)” value (DENV-2 [1]; 10 μM added 12 h p.i.) does the source give for `C#C[C@@]1(O)[C@H](O)[C@@H](CO)O[C@H]1n1ccc2c(N)ncnc21` [NITD008] here?
A: Its value is “reduced RNA levels”.

Q: What does the source list for `COc1ccc(NC(=O)/C=C(C)/C=C/C=C(C)/C=C/C2=C(C)CCCC2(C)C)cc1` [4-MPR, N-(4-methoxyphenyl) retinamide]?
A: reduction of infectious virus titre in infected PBMCs (DENV-1 [2]): no reduction; effect on replication of DENV serotype 4 (DENV-4): did not have any effect; reduction of infectious CHIKV produced (CHIKV; HEK293T cells pre-treated 2 h with compound): did not reduce CHIKV titres; reduction of infectious CHIKV produced (CHIKV; HEK293T cells, compound added after infection): did not reduce CHIKV titres; viral RNA levels (NS1 qPCR) (DENV-2 [1]; 7.5 μM added 12 h p.i., up to 60 h p.i.): viral RNA levels increased steadily until 60 h p.i.; effect on DENV infection (viral RNA copies at 24 h p.i.) (DENV-2 [3]): no effect on DENV infection; effect on replication of DENV serotype 2 (DENV-2 [4]): did not have any effect; effect on replication of DENV serotype 3 (DENV-3): did not have any effect; effect on replication of DENV serotype 1 (DENV-1 [5]): did not have any effect; block of association of DENV-2 NS5 with IMPα/β (DENV-2 NS5 / IMPα/β): neither ATRA nor 4-MPR were able to disrupt association; antiviral activity against WNVKUN [6]: no antiviral activity

Q: How did the “reduction in viral RNA copies at 24 h p.i.” value (DENV-2 [3]; 5 μM compound for 2 h during infection) turn out when `CC1=C(/C=C/C(C)=C/C=C/C(C)=C/C(=O)Nc2ccc(O)cc2)C(C)(C)CCC1=O` [4-oxo-4-HPR, N-(4-hydroxyphenyl)-4-oxoretinamide] was run?
A: Its value is 1 log.

Q: And the “block of association of DENV-2 NS5 with IMPα/β” value (DENV-2 NS5 / IMPα/β)?
A: Its value is “able to block association”.

Q: For `CC1=C(/C=C/C(C)=C/C=C/C(C)=C/C(=O)O)C(C)(C)CCC1` [ATRA, all-trans retinoic acid], which “effect on DENV infection (viral RNA copies at 24 h p.i.)” value (DENV-2 [3]) is on record?
A: The value was “no effect on DENV infection”.

Q: And the “block of association of DENV-2 NS5 with IMPα/β” value (DENV-2 NS5 / IMPα/β)?
A: The value was “neither ATRA nor 4-MPR were able to disrupt association”.

Q: With `C/C(=C\c1ccc(C(=O)O)cc1)c1ccc2c(c1)C(C)(C)CCC2(C)C` [arotinoid acid] as the compound, how does the “effect on DENV infection (viral RNA copies at 24 h p.i.)” value (DENV-2 [3]) read?
A: Its value is “no effect on DENV infection”.

Q: With `CC1=C(/C=C/C(C)=C/C=C/C(C)=C\C(=O)O)C(C)(C)CCC1` [13-cis retinoic acid] as the compound, how does the “effect on DENV infection (viral RNA copies at 24 h p.i.)” value (DENV-2 [3]) read?
A: The value was “no effect on DENV infection”.
